Data published in US20210395262A1, “INHIBITORS OF HUMAN IMMUNODEFICIENCY VIRUS REPLICATION” (ViiV HEALTHCARE UK (NO.5) LIMITED, priority 2018, published 2021).

Assays:
[1] = Compound cytotoxicity, XTT-based colorimetric assay; format: cell-based; settings: human; uninfected MT2 cells, day 4, XTT; read-out: CC50
Description: Compound cytotoxicity and the corresponding CC50 values were determined using the same protocol as described in the antiviral assay except that uninfected cells were used. Cytotoxicity was assessed on day 4 in uninfected MT2 cells by using a XTT (2,3-bis[2-Methoxy-4-nitro-5-sulfophenyl]-2H-tetrazolium-5-carboxyanilide inner salt)-based colorimetric assay (Sigma-Aldrich, St Louis, Mo.).

[2] = test system: recombinant NL4-3 virus; test: HIV cell culture assay (antiviral activity, luciferase readout in MT-2 cells); format: cell-based; settings: Human immunodeficiency virus 1, NL43, MT2
Description: HIV cell culture assay—MT-2 cells, 293T cells and the proviral DNA clone of NL4-3 virus were obtained from the […] AIDS Research and Reference Reagent Program. MT-2 cells were propagated in RPMI 1640 media supplemented with 10% heat inactivated fetal bovine serum (FBS), […] penicillin G and up to 100 units/mL streptomycin. The 293T cells were propagated in DMEM media supplemented with 10% heat inactivated FBS, […] penicillin G and […] streptomycin. A recombinant NL4-3 proviral clone, in which a section of the nef gene was replaced with the Renilla luciferase gene, was used to make the reference virus used in these studies. The recombinant virus was prepared through transfection of the recombinant NL4-3 proviral clone into 293T cells using Transit-293 Transfection Reagent from Mirus Bio LLC (Madison, Wis.). Supernatent was harvested after 2-3 days and the amount of virus present was titered in MT-2 cells using luciferase enzyme activity as a marker by measuring luciferase enzyme activity. Luciferase was quantitated using the EnduRen Live Cell Substrate from Promega (Madison, Wis.). Antiviral activities of compounds toward the recombinant virus were quantified by measuring luciferase activity in MT-2 cells infected for 4-5 days with the recombinant virus in the presence of serial dilutions of the compound.
The 50% effective concentration (EC50) was calculated by using the exponential form of the median effect equation where (Fa)=1/[1+(ED50/drug conc.)m] (Johnson V A, Byington R T. Infectivity Assay. In Techniques in HIV Research. ed. Aldovini A, Walker B D. 71-76. New York: Stockton Press. 1990). The 50% inhibitory concentration (EC50) was calculated by using the exponential form of the median effect equation where percent inhibition=1/[1+(EC50/drug concentration)m], where m is a parameter that reflects the slope of the concentration-response curve.

SMILES	CC50 at 4 days [1] [nM]	EC50 [2] [nM]
C[C@@H]1CN(c2ccc3c(=O)n(-c4ccc(Cl)c5c(NS(=O)(=O)C6CC6)nn(CC(F)(F)F)c45)c([C@H](Cc4cc(F)cc(F)c4)NC(=O)Cn4nc(C(F)(F)F)c5c4C(F)(F)[C@@H]4C[C@H]54)nc3c2)C[C@H](C)O1 (atropisomer, axis not shown; (P)) [Example 63, N—((S)-1-((3P)-3-(4-chloro-3-(cyclopropanesulfonamido)-1-(2,2,2-trifluoroethyl)-1H-indazol-7-yl)-7-((2S,6R)-2,6-dimethylmorpholino)-4-oxo-3,4-dihydroquinazolin-2-yl)-2-(3,5-difluorophenyl)ethyl)-2-((3bS,4aR)-5,5-difluoro-3-(trifluoromethyl)-3b,4,4a,5-tetrahydro-1H-cyclopropa[3,4]cyclopenta[1,2-c]pyrazol-1-yl)acetamide]	> 500	0.15
Cc1cc(C(F)F)nn1C(C)C(=O)N[C@@H](Cc1cc(F)cc(F)c1)c1nc2cc(N3C[C@@H](C)O[C@@H](C)C3)ccc2c(=O)n1-c1ccc(Cl)c2c(NS(C)(=O)=O)nn(CC(F)F)c12 (stereo partly drawn) [Example 51, N—((S)-1-((3P)-3-(4-chloro-1-(2,2-difluoroethyl)-3-(methylsulfonamido)-1H-indazol-7-yl)-7-((2S,6R)-2,6-dimethylmorpholino)-4-oxo-3,4-dihydroquinazolin-2-yl)-2-(3,5-difluorophenyl)ethyl)-2-(3-(difluoromethyl)-5-methyl-1H-pyrazol-1-yl)propanamide]	> 500	1.9
O=C(Cn1nc(C(F)F)cc1C(F)F)N[C@@H](Cc1cc(F)cc(F)c1)c1nc2cc(N3CCCCC3)ccc2c(=O)n1-c1ccc(Cl)c2c(NS(=O)(=O)C3CC3)nn(CC(F)F)c12 (atropisomer, axis not shown; (P)) [Example 37, (S)-2-(3,5-bis(difluoromethyl)-1H-pyrazol-1-yl)-N-(1-((3P)-3-(4-chloro-3-(cyclopropanesulfonamido)-1-(2,2-difluoroethyl)-1H-indazol-7-yl)-4-oxo-7-(piperidin-1-yl)-3,4-dihydroquinazolin-2-yl)-2-(3,5-difluorophenyl)ethyl)acetamide]	> 1000	2.34
C[C@@H]1CN(c2ccc3c(=O)n(-c4ccc(Cl)c5c(NS(C)(=O)=O)nn(CC(F)F)c45)c([C@H](Cc4cc(F)cc(F)c4)NC(=O)Cn4nc(C(F)(F)F)c5c4C(F)(F)[C@@H]4C[C@H]54)nc3c2)C[C@H](C)O1 (atropisomer, axis not shown; (P)) [Example 45, N—((S)-1-((3P)-3-(4-chloro-1-(2,2-difluoroethyl)-3-(methylsulfonamido)-1H-indazol-7-yl)-7-((2S,6R)-2,6-dimethylmorpholino)-4-oxo-3,4-dihydroquinazolin-2-yl)-2-(3,5-difluorophenyl)ethyl)-2-((3bS,4aR)-5,5-difluoro-3-(trifluoromethyl)-3b,4,4a,5-tetrahydro-1H-cyclopropa[3,4]cyclopenta[1,2-c]pyrazol-1-yl)acetamide]	> 500	0.1
Cn1nc(NS(C)(=O)=O)c2c(Cl)ccc(-n3c([C@H](Cc4cc(F)cc(F)c4)NC(=O)Cn4nc(C(F)F)c5c4C(F)(F)[C@@H]4C[C@H]54)nc4cc(N5CC6CCC(C5)O6)ccc4c3=O)c21 [Example 27, N—((S)-1-(7-((1R,5S)-8-oxa-3-azabicyclo[3.2.1]octan-3-yl)-(3P)-3-(4-chloro-1-methyl-3-(methylsulfonamido)-1H-indazol-7-yl)-4-oxo-3,4-dihydroquinazolin-2-yl)-2-(3,5-difluorophenyl)ethyl)-2-((3bS,4aR)-3-(difluoromethyl)-5,5-difluoro-3b,4,4a,5-tetrahydro-1H-cyclopropa[3,4]cyclopenta[1,2-c]pyrazol-1-yl)acetamide]	> 500	0.051
Cn1nc(NS(C)(=O)=O)c2c(Cl)ccc(-n3c([C@H](Cc4cc(F)cc(F)c4)NC(=O)Cn4nc(C(F)F)c5c4C(F)(F)[C@@H]4C[C@H]54)nc4cc(N5CCC[C@H]5CO)ccc4c3=O)c21 (atropisomer, axis not shown; (P)) [Example 35, N—((S)-1-((3P)-3-(4-chloro-1-methyl-3-(methylsulfonamido)-1H-indazol-7-yl)-7-((S)-2-(hydroxymethyl)pyrrolidin-1-yl)-4-oxo-3,4-dihydroquinazolin-2-yl)-2-(3,5-difluorophenyl)ethyl)-2-((3bS,4aR)-3-(difluoromethyl)-5,5-difluoro-3b,4,4a,5-tetrahydro-1H-cyclopropa[3,4]cyclopenta[1,2-c]pyrazol-1-yl)acetamide]	> 10000	0.272
CS(=O)(=O)Nc1nn(CC(F)F)c2c(-n3c([C@H](Cc4cc(F)cc(F)c4)NC(=O)Cn4nc(C(F)F)c5c4C(F)(F)[C@@H]4C[C@H]54)nc4cc(N5CCOCC5)ccc4c3=O)ccc(Cl)c12 (atropisomer, axis not shown; (P)) [Example 7, N—((S)-1-((3P)-3-(4-chloro-1-(2,2-difluoroethyl)-3-(methylsulfonamido)-1H-indazol-7-yl)-7-morpholino-4-oxo-3,4-dihydroquinazolin-2-yl)-2-(3,5-difluorophenyl)ethyl)-2-((3bS,4aR)-3-(difluoromethyl)-5,5-difluoro-3b,4,4a,5-tetrahydro-1H-cyclopropa[3,4]cyclopenta[1,2-c]pyrazol-1-yl)acetamide]	> 500	0.085
C[C@@H]1CN(c2ccc3c(=O)n(-c4ccc(Cl)c5c(NS(C)(=O)=O)nn(CC(F)F)c45)c([C@H](Cc4cc(F)cc(F)c4)NC(=O)Cn4ccc(C5CC5)n4)nc3c2)C[C@H](C)O1 (atropisomer, axis not shown; (P)) [Example 48, N—((S)-1-((3P)-3-(4-chloro-1-(2,2-difluoroethyl)-3-(methylsulfonamido)-1H-indazol-7-yl)-7-((2S,6R)-2,6-dimethylmorpholino)-4-oxo-3,4-dihydroquinazolin-2-yl)-2-(3,5-difluorophenyl)ethyl)-2-(3-cyclopropyl-1H-pyrazol-1-yl)acetamide]	> 500	0.44
CCS(=O)(=O)Nc1nn(C)c2c(-n3c([C@H](Cc4cc(F)cc(F)c4)NC(=O)Cn4nc(C(F)F)c5c4C(F)(F)[C@@H]4C[C@H]54)nc4cc(N5CCOCC5)ccc4c3=O)ccc(Cl)c12 (atropisomer, axis not shown; (P)) [Example 65, N—((S)-1-((3P)-3-(4-chloro-3-(ethylsulfonamido)-1-methyl-1H-indazol-7-yl)-7-morpholino-4-oxo-3,4-dihydroquinazolin-2-yl)-2-(3,5-difluorophenyl)ethyl)-2-((3bS,4aR)-3-(difluoromethyl)-5,5-difluoro-3b,4,4a,5-tetrahydro-1H-cyclopropa[3,4]cyclopenta[1,2-c]pyrazol-1-yl)acetamide]	> 500	0.051
COC1CCCN(c2ccc3c(=O)n(-c4ccc(Cl)c5c(NS(C)(=O)=O)nn(C)c45)c([C@H](Cc4cc(F)cc(F)c4)NC(=O)Cn4nc(C(F)F)c5c4C(F)(F)[C@@H]4C[C@H]54)nc3c2)C1 (stereo partly drawn) [Example 29, N-((1S)-1-((3P)-3-(4-chloro-1-methyl-3-(methylsulfonamido)-1H-indazol-7-yl)-7-(3-methoxypiperidin-1-yl)-4-oxo-3,4-dihydroquinazolin-2-yl)-2-(3,5-difluorophenyl)ethyl)-2-((3bS,4aR)-3-(difluoromethyl)-5,5-difluoro-3b,4,4a,5-tetrahydro-1H-cyclopropa[3,4]cyclopenta[1,2-c]pyrazol-1-yl)acetamide]	> 500	0.052
